The target of series [1] is recombinant 0N4R Tau fibrils (Homo sapiens (Human), UniProt P10636). The series can be described thus: 3H-THK5117 competition binding to tau fibrils in vitro. To be noted: competition with 3 nM [3H]-THK5117, 0N4R tau fibrils, 1 h, 22° C.; average if run more than once. As to the method: ^3H-THK5117 Competition Binding to Tau Fibrils In Vitro
Preparation of recombinant 0N4R Tau fibrils was performed as previously described in Morozova, O. A., Biochemistry (2013), Vol., 52(40), pages 6960-6967. Competition binding experiments to 0N4R Tau fibrils were performed by incubating increasing concentrations [10^−10-10^−6 M] of the Example compounds of the invention, or the known tau specific ligand PBB3 (PBB3 was synthesized as previously described in M. Maruyama, et al, Neuron 2013, 79, 1094-1108) or MK6240 (Novandi Chemistry AB), in the presence of 3 nM of the known tau ligand [^3H]-THK5117 (Novandi Chemistry) and 0.2 mM 0N4R tau fibrils in binding buffer (50 mM Tris-HCl, pH 7.4, 0.1% BSA) for 1 h in the dark, and at 22° C. The incubation was terminated by filtration through a Whatman GF/B glass filter (Whatman International, Kent, UK) using a Brandel cell harvester. The filter was then washed rapidly four times with 3 mL of ice-cold wash buffer (5 mM Tris-HCl, 0.25 mM NaCl, 5% EtOH), and equilibrated for 1 h in scintillation vials containing 5 mL of Ultima Gold scintillation fluid before being analysed using a Liquid Scintillation Analyzer.
The results are shown in Table 2 in the column labeled “Tau IC50”. […] Biological Assay Results

The conditions of series [2]: cited from earlier work.
The nature of series [3]: Mouse intravenous (IV) pharmacokinetic study of plasma and brain exposure with bioanalysis. It is filed as in vivo. To be noted: for Kp / half-life: male, NMRI, iv, 1 mg/kg; for Kp: brain/plasma. Here is the method:
A pharmacokinetic study of plasma and brain exposure in mice after IV administration of Example Compound 1 or Comparative Example Compound 1 was carried out following the protocol described in Loryan, I., et al, Pharm Res (2014) 31: 2203-2219. Comparative Example Compound 1 is 2-{2-Fluoro-6-[4-(hydroxymethyl)piperidin-1-yl]pyridin-3-yl}-1H-indol-5-ol, and has the following structure:
The experimental protocol and bioanalysis described in Loryan, I., et al, Pharm Res (2014) 31: 2203-2219 was followed to measure mouse plasma and brain exposure. Table 3 below provides specific details of the mice, sampling, dose, formulation, method and additional information regarding the experiment, and Table 4 below provides further information regarding the sampling in the experiment.

The mark [4] stands for this setting: mouse, mouse, IV 1 mg/kg, read-out: Total concentration brain:plasma ratio.
Where [5] appears, read: mouse, mouse, IV 1 mg/kg, read-out: Unbound concentration brain:plasma ratio.
The mark [6] stands for this setting: mouse, mouse, IV 1 mg/kg, read-out: unbound AUC in brain as % of the plasma AUC.
The mark [7] stands for this setting: brain, mouse NMRI male, IV 1 mg/kg, mean n=3.
[8] abbreviates: plasma, mouse NMRI male, IV 1 mg/kg, mean n=3.

pIC50: −log10 of the molar value. Read-outs that look alike come from different tables or passages of the source.

The term pIC50 denotes −log10 of the IC50, conventionally taken in molar units. A word on the Cmax: it is the highest concentration seen after dosing. In general, Tmax refers to the time at which the peak concentration occurs. What is called AUC(0-inf) is the area under the concentration-time curve extrapolated to infinity. High values mean high exposure, low ones low exposure. In general, AUC(0-t) refers to the area under the concentration-time curve up to a stated or last time point. Lower therefore signals less exposure. Broadly, the MRT is the average time that molecules of a dose stay in the body. One may read the Vd as a proportionality between amount in the body and measured concentration, not a real space. What is called clearance is the volume of plasma or blood freed of the substance per unit of time. High values mean efficient removal, low ones inefficient removal.

recombinant 0N4R Tau fibrils, sequence (P10636 other isoform, or with tags, fused parts or gaps): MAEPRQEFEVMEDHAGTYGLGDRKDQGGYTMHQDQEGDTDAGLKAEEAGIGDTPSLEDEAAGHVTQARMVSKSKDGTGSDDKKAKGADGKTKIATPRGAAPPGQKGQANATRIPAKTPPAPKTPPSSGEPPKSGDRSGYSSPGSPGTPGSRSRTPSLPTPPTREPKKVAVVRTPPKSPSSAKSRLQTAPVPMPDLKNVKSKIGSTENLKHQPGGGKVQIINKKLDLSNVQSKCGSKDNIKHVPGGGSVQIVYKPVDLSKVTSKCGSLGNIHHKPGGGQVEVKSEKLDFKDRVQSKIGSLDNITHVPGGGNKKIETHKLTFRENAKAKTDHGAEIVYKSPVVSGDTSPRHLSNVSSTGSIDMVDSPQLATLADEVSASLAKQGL

Turning to `CO[C@@H]1CCCN(c2ccc(-c3cc4cc(O)ccc4[nH]3)c(F)n2)C1` [Example Compound 2, 2-{2-Fluoro-6-[(3R)-3-methoxypiperidin-1-yl]pyridin-3-yl}-1H-indol-5-ol], in series [1], the pIC50 was 7.50.

As for `[11CH3]Nc1ccc(/C=C/C=C/c2nc3ccc(O)cc3s2)cn1` [^11C-PBB3], the “radiochemical purity after exposure to fluorescent light” value is given as 77% in series [2] (1 min after exposure) and “approximately 50%” in series [2] (from 10 to 60 min after exposure).

As to `OCC1CCN(c2ccc(-c3cc4cc(O)ccc4[nH]3)c(F)n2)CC1` [Comparative Example Compound 1, 2-{2-Fluoro-6-[4-(hydroxymethyl)piperidin-1-yl]pyridin-3-yl}-1H-indol-5-ol, reference compound], the “Total concentration AUC” value in series [3] (brain, mouse, IV 1 mg/kg) amounted to 15 ng·h/g; in series [3] (plasma, mouse, IV 1 mg/kg) it was 151 ng·h/g. Besides, the “Unbound concentration AUC” value in series [3] (brain, mouse, IV 1 mg/kg) stood at 0.030 ng·h/g; in series [3] (plasma, mouse, IV 1 mg/kg), 14 ng·h/g. Moreover, the Kp in series [3] (setting [4]) was 0.1; in series [3] (setting [5]), 0.002; in series [3] (setting [6]) it was ~0.002.

In the case of `CO[C@H]1CCCN(c2ccc(-c3cc4cc(O)ccc4[nH]3)c(F)n2)C1` [Example Compound 1, 2-{2-Fluoro-6-[(3S)-3-methoxypiperidin-1-yl]pyridin-3-yl}-1H-indol-5-ol], the pIC50 in series [1] is 8.77. In addition, in series [3] (setting [7]), the AUCinf is 457.8 ng·h/g, the AUClast is 454.6 ng·h/g, the Cmax stood at 1190 ng/g and the Tmax was found to be 1.8 min. For the same compound, in series [3] (brain, mouse, IV 1 mg/kg), the “Total concentration AUC” value came out at 457.8 ng·h/g and the “Unbound concentration AUC” value was determined as 0.09 ng·h/g. Besides, the half-life in series [3] (mouse, brain, brain, following IV dosing, mouse, read-out: elimination half-life (converted)) was ~18 min. In addition, in series [3] (mouse, brain, brain, mouse NMRI male, IV 1 mg/kg, mean n=3, read-out: t1/2 (converted)), the half-life was 18 min. The Kp in series [3] (setting [4]) came out at 1.7. Besides, in series [3] (setting [5]), the Kp came to 0.56. Also, in series [3] (setting [6]), the Kp is ~0.56. In series [3] (mouse, plasma, plasma, mouse NMRI male, IV 1 mg/kg, mean n=3, read-out: t1/2 (converted)), the half-life is 24 min. Further, the “adverse events in the mice during the study” value in series [3] (mouse, IV 1 mg/kg) is listed as “No adverse events were observed”. In series [3] (setting [8]), the AUC(0-inf) worked out at 267 ng·h/mL, the AUC(0-t) was found to be 264 ng·h/mL, the C0 stood at 884 ng/mL and the Cmax came to 782 ng/mL. In addition, in series [3] (setting [8]), the MRT stood at 18 min, the Tmax was found to be 1.8 min, the Vd stood at 1.2 L/kg and the clearance worked out at 62.4 mL/min/kg. In series [3] (plasma, mouse, IV 1 mg/kg), the “Total concentration AUC” value was 267.1 ng·h/g and the “Unbound concentration AUC” value was 0.16 ng·h/g.
